Starred links: 1 amine or outer side, 2 acyl side, 3 side chain; linkers in the order of their positions; H or OH if unused. Non-standard residues stand in square brackets, D forms with d. Residues, ends and D or L forms follow the SMILES beside them. *: point of attachment. Dolaproine(4S-N3) = CO[C@H]([C@@H](C)C(=O)[*:2])[C@@H]1C[C@H](N=[N+]=[N-])CN1[*:1]; X2 = CO[C@H]([C@@H](C)C(=O)[*:2])[C@@H]1C[C@@H]2C[C@@H]2N1[*:1]; Dolaproine = CO[C@@H]([C@@H]1CCCN1)[C@@H](C)C(=O)O; Abu(3S-N3) = C[C@H](N=[N+]=[N-])[C@H](N)C(=O)O; Dil = CC[C@H](C)[C@H](NC)[C@@H](CC(=O)O)OC; Phe(2-Cl) = N[C@@H](Cc1ccccc1Cl)C(=O)O; NMe2Val = CC(C)[C@@H](C(=O)*)N(C)C; X4 = C1=C[C@H]2CC[C@@H]1N(*)O2; NMeV = CN[C@H](C(=O)O)C(C)C; NHOH = ON*
Experiments:
HT-29 = assay: Cytotoxicity against human HT-29 cells assessed as cell growth inhibition; type: functional, cell-based
MOLM-13 = assay: Cytotoxicity against human MOLM-13 cells assessed as cell growth inhibition; type: functional, cell-based
L1210 = assay: Cytotoxicity against mouse L1210 cells assessed as cell growth inhibition measured after 24 hrs; type: functional, cell-based; conditions: L1210, 24 h
SK-BR-3 = assay: Cytotoxicity against human SK-BR-3 cells assessed as cell growth inhibition incubated for 72 hrs by CellTiter-Glo assay; type: functional
BT-474 = assay: Anticancer activity against human BT-474 assessed as cell growth inhibition incubated for 4 days by WST-8 assay; type: functional; conditions: BT-474, 96 h, time 4 day
H3396 [1] = assay: Cytotoxicity against human H3396 cells assessed as cell growth inhibition; type: functional, cell-based
[2] = test system: Panel NCI-60 (60 carcinoma cell lines); assay: Cytotoxicity against human Panel NCI-60 (60 carcinoma cell lines) assessed as cell growth inhibition; type: functional, cell-based
H3396 [3] = assay: Cytotoxicity against human H3396 cells assessed as cell growth inhibition measured after 96 hrs by resazurin dye based assay; type: functional
HCT-116 = assay: Cytotoxicity against human HCT-116 cells assessed as cell growth inhibition measured after 96 hrs by resazurin dye based assay; type: functional

In the case of CC[C@H](C)[C@@H]([C@@H](CC(=O)N1CCC[C@H]1[C@H](OC)[C@@H](C)C(=O)N[C@H](/C=C\c1ccccc1)Cc1ccccc1)OC)N(C)C(=O)[C@@H](NC(=O)[C@H](C(C)C)N(C)CCCC(=O)O)C(C)C, the IC50 (HT-29) is reported as 3.3 nM.

In the case of CC[C@H](C)[C@@H]([C@@H](CC(=O)N1C[C@@H](N=[N+]=[N-])C[C@H]1[C@H](OC)[C@@H](C)C(=O)N[C@@H](Cc1ccccc1)C(=O)OC)OC)N(C)C(=O)[C@@H](NC(=O)[C@@H](NC)C(C)C)[C@H](C)N=[N+]=[N-] (H-[NMeV][Abu(3S-N3)][Dil][Dolaproine(4S-N3)]F-OMe), the GI50 (MOLM-13) is reported as 0.279 nM.

For CC[C@H](C)[C@@H]([C@@H](CC(=O)N1CCC[C@H]1/C=C(\C)C(=O)N[C@@H](Cc1ccccc1)c1nccs1)OC)N(C)C(=O)[C@@H](NC(=O)[C@H](C(C)C)N(C)C)C(C)C, the IC50 (L1210) was greater than 10000 nM.

CC[C@H](C)[C@@H]([C@@H](CC(=O)N1[C@H]2C[C@H]2C[C@H]1[C@H](OC)[C@@H](C)C(=O)N[C@@H](Cc1ccccc1Cl)C(=O)O)OC)N(C)C(=O)[C@@H](NC(=O)[C@@H](NC)C(C)C)C(C)C (H-[NMeV]V[Dil][X2][Phe(2-Cl)]-OH) showed a GI50 (SK-BR-3) of 1.06 nM.

CC[C@H](C)[C@@H]([C@@H](CC(=O)N1C[C@@H](N=[N+]=[N-])C[C@H]1[C@H](OC)[C@@H](C)C(=O)N[C@@H](Cc1ccccc1)C(=O)OC)OC)N(C)C(=O)[C@@H](NC(=O)[C@@H](NC)C(C)C)C(C)C (H-[NMeV]V[Dil][Dolaproine(4S-N3)]F-OMe) gave a GI50 (MOLM-13) of 0.224 nM.

CC[C@H](C)[C@@H]([C@@H](CC(=O)N1C[C@@H](N)C[C@H]1[C@H](OC)[C@@H](C)C(=O)NCCc1c(F)cccc1F)OC)N(C)C(=O)[C@@H](NC(=O)[C@H](C(C)C)N(C)C)C(C)C showed a GI50 (BT-474) of 0.17 nM.

Work on CC[C@H](C)[C@@H]1[C@H](OC)CC(=O)N2C[C@H](C[C@H]2[C@H](OC)[C@@H](C)C(=O)N[C@@H](Cc2ccccc2)C(=O)OC)NC(=O)CCCC(=O)N[C@@H](C)[C@H](NC(=O)[C@H](NC)C(C)C)C(=O)N1C yielded an IC50 (MOLM-13) greater than 1000 nM.

For CC[C@H](C)[C@@H]([C@@H](CC(=O)N1CCC[C@H]1[C@H](OC)[C@@H](C)C(=O)N[C@@H](Cc1ccccc1)C(=O)N1O[C@H]2C=C[C@@H]1CC2)OC)N(C)C(=O)[C@@H](NC(=O)[C@H](C(C)C)N(C)C)C(C)C (NMe2Val-V[Dil][Dolaproine]F-X4), the IC50 (HT-29) was 0.5 nM.

For CC[C@H](C)[C@@H]([C@@H](CC(=O)N1CCC[C@H]1[C@@H](OC)[C@@H](C)C(=O)N[C@@H](Cc1ccccc1)c1nccs1)OC)N(C)C(=O)[C@@H](NC(=O)[C@H](C(C)C)N(C)C)C(C)C, the IC50 (L1210) was greater than 10000 nM.

CC[C@H](C)[C@@H]([C@@H](CC(=O)N1CCC[C@H]1[C@H](OC)[C@@H](C)C(=O)N[C@@H](CC(C)C)C(=O)NO)OC)N(C)C(=O)[C@@H](NC(=O)[C@H](C(C)C)N(C)C)C(C)C (NMe2Val-V[Dil][Dolaproine]L-{NHOH}) showed a GI50 (SK-BR-3) of 3 nM.

CC[C@H](C)[C@@H]([C@@H](CC(=O)N1CCC[C@H]1[C@H](OC)[C@@H](C)C(=O)NC1(C(=O)N2Cc3ccccc3CO2)C[C@@H]1c1ccccc1)OC)N(C)C(=O)[C@@H](NC(=O)[C@H](C(C)C)N(C)C)C(C)C (stereo partly drawn) was tested, and the IC50 (HT-29) was 1.2 nM.

Work on CC[C@H](C)[C@@H]([C@@H](CC(=O)N1CC(=O)C[C@H]1[C@H](OC)[C@@H](C)C(=O)NCCc1ccccc1)OC)N(C)C(=O)[C@@H](NC(=O)[C@H](C(C)C)N(C)C)C(C)C yielded a GI50 (BT-474) of 5.23 nM.

CC[C@H](C)[C@@H]([C@@H](CC(=O)N1CCC[C@H]1[C@H](OC)[C@@H](C)C(=O)N[C@@H](Cc1ccccc1)C(=O)OC)OC)N(C)C(=O)[C@@H](NC(=O)[C@@H](NC)C(C)C)C(C)C (H-[NMeV]V[Dil][Dolaproine]F-OMe) was tested, and the IC50 (H3396 [1]) was less than 0.001 nM.

With CC[C@H](C)[C@@H]([C@@H](CC(=O)N1C[C@@H](NC)C[C@H]1[C@H](OC)[C@@H](C)C(=O)NCCc1c(F)cccc1F)OC)N(C)C(=O)[C@@H](NC(=O)[C@H](C(C)C)N(C)C)C(C)C the GI50 (BT-474) was 0.34 nM.

With CC[C@H](C)[C@@H]([C@@H](CC(=O)N1C[C@@H](N=[N+]=[N-])C[C@H]1[C@H](OC)[C@@H](C)C(=O)N[C@@H](Cc1ccccc1)C(=O)OC)OC)N(C)C(=O)[C@@H](NC(=O)[C@H](C(C)C)N(C)C)[C@H](C)N=[N+]=[N-] the GI50 (MOLM-13) was 0.057 nM.

CC[C@H](C)[C@@H]([C@@H](CC(=O)N1CCC[C@H]1[C@H](OC)[C@@H](C)C(=O)NCCc1ccccc1)OC)N(C)C(=O)[C@@H](NC(=O)[C@H](C(C)C)N(C)C)C(C)C [SOBLIDOTIN] gave a GI50 [2] of 0.49 nM.

CC[C@H](C)[C@@H]([C@@H](CC(=O)N1CCC[C@H]1[C@H](OC)[C@@H](C)C(=O)N[C@@H](Cc1ccccc1)c1nn[nH]n1)OC)N(C)C(=O)[C@@H](NC(=O)[C@H](C(C)C)N(C)C)C(C)C was tested, and the GI50 (H3396 [3]) was 0.09 nM and the GI50 (HCT-116) was 6 nM.

Source: ChEMBL document CHEMBL5150014, “Discovery and Development of Dolastatin 10-Derived Antibody Drug Conjugate Anticancer Drugs” (J Nat Prod, 2022)
